The test system of data set [1] is RS112 cells. The data set is described as follows: DEL plating assay for mitigation of radiation damage (treatment after 2000Gy). It is filed as cell-based, Saccharomyces cerevisiae. The protocol: The mitigation protocol is based on the same DEL assay principle of recombination of the disrupted HIS3 gene that renders the cells capable of synthesizing its own histidine following radiation exposure. To establish mitigation properties of the compounds in question, the classical DEL protocol is modified as follows: first the RS112 cells are irradiated with 2000Gy and then the treatments are administered at 0 min, 10 min, 20 min, 30 min, and 60 min, incubated for 2 hrs, and plated on +13 and −His agar plates. The efficacy of the compounds is scored the same way as in the classical DEL protocol. Yel1 and Yel2 analogues that are efficacious in the HTS and classical DEL assay are analyzed for mitigation activity using this modified DEL protocol.
Six confirmed hits were also tested for radioprotection with the compounds being presented to irradiated cells at different time points following irradiation exposure. The DEL Plating Assay was used with a radiation sensitive Saccharomyces cerevisiae RS112 strain.
The general DEL Assay is described above. In this example, DEL assay is a genetic construct in the Saccharomyces cerevisiae RS112 strain where a plasmid with an internal fragment of the HIS3 gene has been integrated at the HIS3 locus, yielding an integrative disruption of the HIS3 gene. […] The construct reverts to HIS3+ by recombination between the two his3 deletion alleles which is, in 99% of the cases, associated with the deletion of the entire 6 kilobasepairs of DNA comprising the integrated plasmid. DEL events are inducible with a variety of DNA-assaulting agents: radiation, smoking, UV exposure, 92% of the known carcinogens, etc.
RS112 cells irradiated with 2000Gy show an induction of the deletion frequencies (DEL events) and roughly a 90% killing.

The test system of data set [2] is C3H mice. Put plainly: Radioprotection experiments in C3H mice (8Gy, compound before exposure). Type of data set: in vivo, mouse. Conditions: 8Gy (LD100/30), 75 mg/kg. An excerpt: Only the results for Compound 4 are significant at Day 14 post irradiation. Irradiated controls died on Day 13 while most of the treated mice survived to Day 18, and mice in group 4 and 1 have survived to Day 24. The limitation of this study was the number of mice in each group due to the small quantities of the commercially available compounds.

In data set [3] the test system is OMM lymphocytes. The data set is described as follows: γH2AX assay, cigarette smoke extract induced double strand breaks. It is filed as cell-based, mouse. Conditions: 3 puff/mL cigarette smoke extract, 6 and 24 hrs, Ogg−/− Myh−/− mice. As to the method:
Whole peripheral blood lymphocytes were taken from WT, and OMM double knockout mice (mice deficient in DNA repair pathways observed in smoking-induced lung cancer) and were administered 3 puff/mL of Cigarette smoke extract (CSE) alone or co-incubation of 3 puff/mL Cigarette smoke extract and 10 uM Yel 002 for 3, 6, and 24 hrs and the amount of double stranded breaks were assessed via γH2AX assay. […] Statistical significance was assessed via a 1 way ANOVA test with Tukey's post-hoc analysis. […] Statistical significance was assessed via a 1 way ANOVA test with Tukey's post-hoc analysis. N=3 in each group.

Data set [4] relates to C3H mice. Put plainly: Toxicity experiments in C3H mice. It is filed as in vivo, mouse. Conditions: 150 mg/kg, 75 mg/kg and 5 mg/kg; 120 days following the injections. The protocol:
Having seen no adverse effects of the chemicals alone on mammalian cell models we performed a preliminary toxicity study on a group of C3H mice. […] In a pilot reproductive toxicity study, 12, week old female mice were paired up with 6 week old male mice and checked daily for the presence of a characteristic “plug” in the female vaginal canal as an indication of mating. As soon as the mating has occurred, males were removed and the females were treated weekly with 75 mg/kg s.c. throughout the gestation period and until the pups were weaned off (8 week treatment course). After weaning, treatment of the offspring was initiated at the same 75 mg/kg s.c. weekly dose. Controls were injected s.c. on the same schedule with the carrier (1N saline). Five treated and five control females gave birth to the same average number of pups per litter (n=6) without any detectable toxicities to the other. 3 litters of each treated and control groups survived to continue the study. No pathologies, toxicities nor adverse effects were observed. There are no developmental or teratogenic deficiencies in mice, average weights (21 g) are the same in both groups also.

In data set [5] the test system is RS112 strain of S. cerevisiae. Put plainly: Classical DEL plating assay, radioprotection at 2000Gy irradiation. Type of data set: cell-based, Saccharomyces cerevisiae. As to the method:
All DEL assays utilize the established methodology of “recombination” (deletion of the interruption segment and consequent end joining of the adjacent sequences) of a disrupted histidine gene that renders yeast cells exposed to radiation capable of growing on media lacking this amino acid. In the classical DEL assay radiation sensitive RS112 strain of S. cerevisiae is added to the compounds of interest suspended in complete media, incubated for 2 hrs, and irradiated at 2000Gy. The cells are then plated onto full (+13) and lacking histidine (−His) agar plates. After incubation the colonies are scored and recombination events are calculated. The efficacy of the compound is evaluated as a reduced fraction of DEL recombinations in comparison to that of irradiated controls without treatment. Radioprotectors decrease the frequency of such recombination frequencies after radiation exposure.
A plasmid with an internal fragment of the HIS3 gene, which is responsible for histidine synthesis in yeast, without which cells cannot survive in media lacking histidine, has been integrated at the HIS3 locus, yielding an integrative disruption of the HIS3 gene (Schiestl, R. H., et al., Genetics, 1988. 119(2): p. 237-47). […]

In data set [6] the test system is C3H mice. Put plainly: Recovery of the hematopoietic system after 6 Gy irradiation. It is filed as in vivo, mouse. An excerpt:
WBC-total white blood cells (K/uL), NE—neutrophils (K/uL), and LY—lymphocytes (K/uL). With 1—tail, Student's t-Student's t-test, WBC and NE, along with monocytes, eosinophils, and basophils (data not shown) are p<0.05.
RBC— red blood cells (M/uL), HB-hemoglobin (g/dL), and HCT-hematocrit (%).

The test system of data set [7] is DEL RS112 tester strain. The data set is described as follows: DEL assay, damage by chemical carcinogen MMS. Conditions: 15 uM, 1 hrs after exposure to MMS. It is filed as cell-based, Saccharomyces cerevisiae. From the text: A DEL assay, described above, is used for assessing mitigation of damage induced by chemical carcinogens by compounds of invention.
Tests in this example show administration of Yel001 and Yel002 confers reduction against chemical carcinogen Methyl methanesulfonate (MMS) in vitro.
Reduction of cytotoxicity and genotoxicity with Yel002 is p<0.007 and p<0.04 restively; p-values for Yel001 are 0.0007 (genotoxicity) and 0.1 for cytotoxicity.

Entries after “also recorded” stand apart in the source; their conditions may differ.

On to `COc1ccc2cc(-c3nc4ccc(C)cn4c3NCc3ccco3)c(=O)[nH]c2c1` [Yel002], for which the “reduction of DEL events (gene reversion frequency)” value in data set [1] (compound added 0-60 min after 2000Gy, p<0.05) is given as “decreased DEL frequencies; also recorded: significant reduction of genetic instability”. The “mitigation of radiation cytotoxicity (survival)” value in data set [1] (compound added at time points after 2000Gy, significant only at 60 min) is listed as “increased survival fractions; also recorded: mitigation of radiation cytotoxicity has been observed”. Besides, the “survival versus 8 Gy control group” value in data set [2] (listed as 5) is “noticeable difference in survival”; in data set [2] (listed as Compound 5), “increase in survival”. In addition, the “double strand breaks / average γH2AX per cell” value is given as “reduces the number of DNA double strand breaks” in data set [3] and “significantly reduces cigarette smoke induced double strand breaks; also recorded: significantly decreases the amount of average γH2AX per cell” in data set [3] (listed as YEL 002). The “adverse physiological or behavioral effects” value in data set [4] is “did not show any adverse physiological nor behavioral adverse effects”. Further, the “radioprotector characteristics (genotoxicity and cytotoxicity protection)” value in data set [5] is given as “radioprotector characteristics”. In addition, the “recovery of total white blood cells, red blood cells, and platelets” value in data set [6] (75 mg/kg s.c. 5×24) is reported as “increases the recovery”. For the same compound, the “recovery of the hematopoietic system” value in data set [6] (75 mg/kg s.c. 5×24 hr schedule) is “promote the recovery of the hematopoietic system”. Further, the “genotoxicity and cytotoxicity by MMS” value in data set [7] was “reduction in genotoxicity and cytotoxicity; also recorded: can be mitigated”.

Source of the values: patent US9045474B2, “Compounds and compositions for mitigating tissue damage and lethality” (The Regents of the University of California, priority 2010, dated 2015).
